14 compounds from patent US20110124634A1, “BIOACTIVE COMPOUNDS FOR TREATMENT OF CANCER AND NEURODEGENERATIVE DISEASES” (PONIARD PHARMACEUTICALS, INC., priority 2008, published 2011) can be followed below.

Assay type in all cases: cell-based
Test [1] has as its system HSP90 client protein Her2 in SKBR-3 cells. Put plainly: Her-2 degradation assay (Her-2 ELISA) in SKBr-3 cells. The following applies: Homo sapiens, 18 hours. The method, then: Most of the compounds synthesized were evaluated for their ability to induce degradation of the HSP90 client protein Her2 in SKBR-3 cells. Selected compounds were evaluated in a fluorescence polarization (FP) assay for their affinity to HSP90.
SKBr-3 cells grown in McCoy's 5a Medium supplemented with 10% fetal bovine serum (FBS) were plated into 12-well plates at 50% confluency. Increasing concentrations of inhibitors were added 24 hours later (cells are 65-70% confluent) and incubated overnight for 18 hours. The wells were washed with 2 ml of phosphate buffered saline (PBS), and 50 ul of trypsin was added to each well. After trypsinization was complete, 150 ul of FBS was added to each well. Then 200 ul of cells were transferred to 96-well plates and plates were centrifuged at 1200 rpm for 2 minutes using a tabletop centrifuge. The cells were washed once with 250 ul PBS before being lysed with 100 ul of 50 mM Tris (pH 7.4), 0.1% NP-40 lysis buffer. Protein concentrations of clarified lysates were determined using the BCA Assay (Calbiochem) according to the manufacturer's instructions. 2 ug of each lysate was analyzed in the human sp 185 Her-2 ELISA (Bender Medsystems) according to the manufacturer's instructions. ELISA plates were read at 450 nm using a multiwell plate spectrophotometer. Background was determined by measuring the Abs 450 nm of wells with no lysate added. The background value was subtracted from all values. Absorbance 450 nm values for each inhibitor were plotted against the log 10 inhibitor concentration, and IC50 values were calculated using a nonlinear least-square curve fitting program in Prism 5.

The test system of a further test is MCF-7. The test can be described thus: MTS assay (cytotoxicity), growth inhibition of MCF-7. The settings on record: Homo sapiens, MCF7, 120 h. The method, then: (§1) Cells were seeded in 96-well plates at 2000 cells/well in a final culture volume of 100 ul for 24 hours before the addition of 25 ul of increasing concentrations of inhibitors that was incubated for 5 days. Viable cell number was determined using the CellTiter 96 AQueous One Solution Cell Proliferation Assay (Promega). Plates were read at 490 nm absorbance 2-4 hours after addition of the MTS reagent using a multiwell plate spectrophotometer. Background was determined by measuring the Abs 490 nm of cell culture medium and MTS in the absence of cells. The background value was subtracted from all values. Absorbance 490 nm values for each inhibitor were plotted against the log 10 inhibitor concentration, and IC50 values were calculated using a nonlinear least-square curve fitting program in Prism 5.
(Tetrazolium dyes change colour on reduction, which living cells bring about.)

The test system of another test is HT29. Put plainly: MTS assay (cytotoxicity), growth inhibition of HT29. The following applies: Homo sapiens, HT-29, 120 h. As to the method: as §1
Another test relates to SKBR-3. The test can be described thus: MTS assay (cytotoxicity), growth inhibition of SKBR-3. The following applies: Homo sapiens, SK-BR-3, 120 h. As to the method: as §1
The next test deals with BT474. Put plainly: MTS assay (cytotoxicity), growth inhibition of BT474. The following applies: Homo sapiens, BT-474, 120 h. The method, then: as §1
Where [2] appears, read: SK-BR-3, Table 1, series I, means of three independent experiments.
Setting [3] is: Table 4, 5 days, means of three independent experiments, read-out: MCF-7 IC50 (growth inhibition).
Where [4] appears, read: Table 4, 5 days, means of three independent experiments, read-out: HT29 IC50 (growth inhibition).
[5] abbreviates: Table 4, 5 days, means of three independent experiments, read-out: SKBR-3 IC50 (growth inhibition).
[6] abbreviates: Table 4, 5 days, means of three independent experiments, read-out: BT474 IC50 (growth inhibition).
[7] abbreviates: Table 5, series III, 5 days, read-out: Growth Inhibition (IC50) MCF-7.
Setting [8] is: Table 5, series III, 5 days, read-out: Growth Inhibition (IC50) HT29.
Where [9] appears, read: Table 5, series III, 5 days, read-out: Growth Inhibition (IC50) SKBR-3.
The mark [10] stands for this setting: Table 5, series III, 5 days, read-out: Growth Inhibition (IC50) BT474.

One may read the IC50 as the concentration that inhibits the measured activity by half.

SMILES strings stand for the structures. Where two headings read alike, the source gives them in different places.

As for `COc1c(C)cnc(CN2CC(=O)N(CCN3CCCC3)c3c(Cl)nc(N)nc32)c1C` [Example I-7], the IC50 in test [1] (setting [2]) was determined as 510 nM; with MCF-7 (setting [3]), 1320 nM; in the test with HT29 (setting [4]), 1080 nM; in the test on SKBR-3 (setting [5]) it was 300 nM; in the test with BT474 (setting [6]), 520 nM.

Consider `COc1c(C)cnc(CN2CC(=O)N(CCCN3CCOCC3)c3c(Cl)nc(N)nc32)c1C` [Example I-10], for which the IC50 in test [1] (setting [2]) is 1550 nM; in the test with MCF-7 (setting [3]), 2590 nM; in the test on HT29 (setting [4]), 2950 nM; in the test on SKBR-3 (setting [5]), 1110 nM; with BT474 (setting [6]), 1810 nM.

`COc1c(C)cnc(CN2C(=O)/C(=C\c3ccc[nH]3)c3c(Cl)nc(N)nc32)c1C` [III-1, 2-Amino-4-chloro-7-(4-methoxy-3,5-dimethyl-pyridin-2-ylmethyl)-5-[1-(1H-pyrrol-2-yl)-meth-(Z)-ylidene]-5,7-dihydro-pyrrolo[2,3-d]pyrimidin-6-one]: the IC50 worked out at 90 nM in test [1] (SK-BR-3, Table 5, series III); 90 nM in the test with MCF-7 (setting [7]); 30 nM with HT29 (setting [8]); 90 nM in the test with SKBR-3 (setting [9]); 30 nM in the test with BT474 (setting [10]).

With `COc1c(C)cnc(CN2C(=O)/C(=C\c3[nH]c(C)cc3C)c3c(Cl)nc(N)nc32)c1C` [III-2, 2-Amino-4-chloro-5-[1-(3,5-dimethyl-1H-pyrrol-2-yl)-meth-(Z)-ylidene]-7-(4-methoxy-3,5-dimethyl-pyridin-2-ylmethyl)-5,7-dihydro-pyrrolo[2,3-d]pyrimidin-6-one], the IC50 was found to be 1670 nM in test [1] (SK-BR-3, Table 5, series III); 3650 nM in the test on MCF-7 (setting [7]); 1210 nM in the test with HT29 (setting [8]); 960 nM in the test on SKBR-3 (setting [9]); 1020 nM in the test on BT474 (setting [10]).

Take `COc1c(C)cnc(CN2C(=O)/C(=C\c3ncc[nH]3)c3c(Cl)nc(N)nc32)c1C` [III-3, 2-Amino-4-chloro-5-[1-(1H-imidazol-2-yl)-meth-(Z)-ylidene]-7-(4-methoxy-3,5-dimethyl-pyridin-2-ylmethyl)-5,7-dihydro-pyrrolo[2,3-d]pyrimidin-6-one]: the IC50 in test [1] (SK-BR-3, Table 5, series III) was found to be 90 nM; in the test with MCF-7 (setting [7]) it was 100 nM; with HT29 (setting [8]) it was 70 nM; with SKBR-3 (setting [9]) it was 40 nM; in the test on BT474 (setting [10]) it was 60 nM.

Consider `COc1c(C)cnc(CN2C(=O)/C(=C\c3[nH]cnc3C)c3c(Cl)nc(N)nc32)c1C` [III-4, 2-Amino-4-chloro-7-(4-methoxy-3,5-dimethyl-pyridin-2-ylmethyl)-5-[1-(5-methyl-3H-imidazol-4-yl)-meth-(Z)-ylidene]-5,7-dihydro-pyrrolo[2,3-d]pyrimidin-6-one], for which the IC50 in test [1] (SK-BR-3, Table 5, series III) turned out to be 340 nM; in the test with MCF-7 (setting [7]), 530 nM; in the test with HT29 (setting [8]) it was 120 nM; in the test on SKBR-3 (setting [9]) it was 160 nM; in the test with BT474 (setting [10]), 190 nM.

On to `COC(=O)c1ccc(/C=C2\C(=O)N(Cc3ncc(C)c(OC)c3C)c3nc(N)nc(Cl)c32)[nH]1` [III-5, 5-[2-Amino-4-chloro-7-(4-methoxy-3,5-dimethyl-pyridin-2-ylmethyl)-6-oxo-6,7-dihydro-pyrrolo[2,3-d]pyrimidin-(5Z)-ylidenemethyl]-1H-pyrrole-2-carboxylic acid methyl ester], for which the IC50 turned out to be 480 nM in test [1] (SK-BR-3, Table 5, series III); 960 nM with MCF-7 (setting [7]); 560 nM in the test on HT29 (setting [8]); 230 nM with SKBR-3 (setting [9]); 210 nM in the test on BT474 (setting [10]).

With `COc1c(C)cnc(CN2C(=O)/C(=C\c3cc4c([nH]3)CCC=C4Cl)c3c(Cl)nc(N)nc32)c1C` [III-7, 2-Amino-4-chloro-5-[1-(4-chloro-6,7-dihydro-1H-indol-2-yl)-meth-(Z)-ylidene]-7-(4-methoxy-3,5-dimethyl-pyridin-2-ylmethyl)-5,7-dihydro-pyrrolo[2,3-d]pyrimidin-6-one], the IC50 was found to be 6570 nM in test [1] (SK-BR-3, Table 5, series III); 5430 nM with MCF-7 (setting [7]); 2010 nM in the test on HT29 (setting [8]); 5750 nM in the test with SKBR-3 (setting [9]); 4710 nM with BT474 (setting [10]).

As for `COc1c(C)cnc(CN2C(=O)/C(=C\c3ccc(C(=O)C(F)(F)F)[nH]3)c3c(Cl)nc(N)nc32)c1C` [III-8, 2-Amino-4-chloro-7-(4-methoxy-3,5-dimethyl-pyridin-2-ylmethyl)-5-[1-[5-(2,2,2-trifluoro-acetyl)-1H-pyrrol-2-yl]-meth-(Z)-ylidene]-5,7-dihydro-pyrrolo[2,3-d]pyrimidin-6-one], the IC50 stood at 150 nM in test [1] (SK-BR-3, Table 5, series III); 810 nM in the test with MCF-7 (setting [7]); 1310 nM with HT29 (setting [8]); 150 nM in the test with SKBR-3 (setting [9]); 470 nM in the test on BT474 (setting [10]).

On to `COc1c(C)cnc(CN2C(=O)/C(=C\c3[nH]ncc3Br)c3c(Cl)nc(N)nc32)c1C` [III-10, (Z)-2-Amino-5-((4-bromo-1H-pyrazol-5-yl)methylene)-4-chloro-7-((4-methoxy-3,5-dimethylpyridin-2-yl)methyl)-5H-pyrrolo[2,3-d]pyrimidin-6(7H)-one], for which the IC50 in test [1] (SK-BR-3, Table 5, series III) was determined as 280 nM; with MCF-7 (setting [7]), 1270 nM; in the test on HT29 (setting [8]) it was 480 nM; in the test with SKBR-3 (setting [9]), 170 nM; in the test with BT474 (setting [10]), 320 nM.

With `COc1c(C)cnc(CN2C(=O)/C(=C\c3cc(Br)c[nH]3)c3c(Cl)nc(N)nc32)c1C` [III-11, (Z)-2-Amino-5-((4-bromo-1H-pyrrol-2-yl)methylene)-4-chloro-7-((4-methoxy-3,5-dimethylpyridin-2-yl)methyl)-5H-pyrrolo[2,3-d]pyrimidin-6(7H)-one], the IC50 in test [1] (SK-BR-3, Table 5, series III) stood at 190 nM; with MCF-7 (setting [7]), 1380 nM; in the test on HT29 (setting [8]) it was 380 nM; with SKBR-3 (setting [9]), 140 nM; in the test with BT474 (setting [10]), 430 nM.

Turning to `COc1c(C)cnc(CN2C(=O)/C(=C\c3cc(C(=O)NCCN4CCOCC4)c[nH]3)c3c(Cl)nc(N)nc32)c1C` [III-16, (Z)-5-((2-Amino-4-chloro-7-((4-methoxy-3,5-dimethylpyridin-2-yl)methyl)-6-oxo-6,7-dihydro-5H-pyrrolo[2,3-d]pyrimidin-5-ylidene)methyl)-N-(2-morpholinoethyl)-1H-pyrrole-3-carboxamide], the IC50 in test [1] (SK-BR-3, Table 5, series III) was 30 nM; in the test on MCF-7 (setting [7]), 100 nM; in the test with HT29 (setting [8]) it was 50 nM; in the test with SKBR-3 (setting [9]), 20 nM; with BT474 (setting [10]), 10 nM.

As to `COc1c(C)cnc(CN2C(=O)/C(=C\c3cc(C(=O)NCCO)c[nH]3)c3c(Cl)nc(N)nc32)c1C` [III-18, (Z)-5-((2-Amino-4-chloro-7-((4-methoxy-3,5-dimethylpyridin-2-yl)methyl)-6-oxo-6,7-dihydro-5H-pyrrolo[2,3-d]pyrimidin-5-ylidene)methyl)-N-(2-hydroxyethyl)-1H-pyrrole-3-carboxamide], the IC50 in test [1] (SK-BR-3, Table 5, series III) was 360 nM; in the test with MCF-7 (setting [7]), more than 500 nM; with HT29 (setting [8]), 110 nM; with SKBR-3 (setting [9]) it was 30 nM; in the test on BT474 (setting [10]) it was 30 nM.

`CCN(CC)CCNC(=O)c1c[nH]c(/C=C2\C(=O)N(Cc3ncc(C)c(OC)c3C)c3nc(N)nc(Cl)c32)c1` [III-19, (Z)-5-((2-Amino-4-chloro-7-((4-methoxy-3,5-dimethylpyridin-2-yl)methyl)-6-oxo-6,7-dihydro-5H-pyrrolo[2,3-d]pyrimidin-5-ylidene)methyl)-N-(2-(diethylamino)ethyl)-1H-pyrrole-3-carboxamide]: the IC50 in test [1] (SK-BR-3, Table 5, series III) stood at 10 nM; with MCF-7 (setting [7]) it was 70 nM; in the test on HT29 (setting [8]), 10 nM; in the test with SKBR-3 (setting [9]), 1 nM; in the test with BT474 (setting [10]) it was 0.7 nM.
